The text below walks through data of US11578072B2, “Spiro-lactam NMDA receptor modulators and uses thereof” (Aptinyx Inc., priority 2018, dated 2023).

The structures appear in SMILES notation.

Data set [1] concerns the target T1, NMDAR2D (Homo sapiens, UniProt O15399).
T1 construct: expressed in transfected cells; host or cells: HEK cells (membrane extract)
The data set is described as follows: NMDAR agonist assay, [3H]MK-801 binding, NMDAR2D expressing HEK cell membranes. Format: biochemical. Conditions: 50 μM glutamate. On the procedure:
(§1) Assays were conducted as described by Moskal et al., “GLYX-13: a monoclonal antibody-derived peptide that acts as an N-methyl-D-aspartate receptor modulator,” Neuropharmacology, 49, 1077-87, 2005. These studies were designed to determine if the test compounds act to facilitate NMDAR activation in NMDAR2A, NMDAR2B, NMDAR2C or NMDAR2D expressing HEK cell membranes as measured by increases in [3H]MK-801 binding.
(§2) In the assay, 300 μg of NMDAR expressing HEK cell membrane extract protein was preincubated for 15 minutes at 25° C. in the presence of saturating concentrations of glutamate (50 μM) and varying concentrations of test compound (1×10^−15M-1×10^−7M), or 1 mM glycine. Following the addition of 0.3 μCi of [3H]MK-801 (22.5 Ci/mmol), reactions were again incubated for 15 minutes at 25° C. (nonequilibrium conditions). Bound and free [3H]MK-801 were separated via rapid filtration using a Brandel apparatus.
(§3) In analyzing the data, the DPM (disintegrations per minute) of [3H]MK-801 remaining on the filter were measured for each concentration of test compound or for 1 mM glycine. The DPM values for each concentration of a ligand (N=2) were averaged. The baseline value was determined from the best fit curve of the DPM values modeled using the GraphPad program and the log(agonist) vs. response(three parameters) algorithm was then subtracted from all points in the dataset. The % maximal [3H]MK-801 binding was then calculated relative to that of 1 mM glycine: all baseline subtracted DPM values were divided by the average value for 1 mM glycine. The EC50 and % maximal activity were then obtained from the best fit curve of the % maximal [3H]MK-801 binding data modelled using the GraphPad program and the log(agonist) vs. response(three parameters) algorithm.
(§4) The tables below summarize the results for the wild type NMDAR agonists NMDAR2A, NMDAR2B, NMDAR2C, and NMDAR2D, and whether the compound is not an agonist (−), is an agonist (+), or is a strong agonist (++), where column A is based on the % maximal [3H]MK-801 binding relative to 1 mM glycine (−=0; <100%=+; and >100%=++); and column B is based on log EC50 values (0=−; >1×10^−9 M (e.g., −8)=+; and <1×10^−9 M (e.g., −10)++).

The target of data set [2] is T2, NMDAR2D (Homo sapiens, UniProt O15399+Q05586).
T2 construct: expressed in transfected cells; host or cells: HEK cells (membrane extract)
Described as above. The conditions noted are these: 50 μM glutamate, read-out: NMDAR2D B: log EC50 (converted). Format: biochemical. On the procedure: as §1, §2, §3, §4

The nature of data set [3]: Oral pharmacokinetics in rats (plasma, brain, CSF). Format: in vivo, Sprague Dawley rats. Conditions: rat, oral gavage, 10 mg/kg. How it is done:
In another experiment, Sprague Dawley rats were dosed per os (oral gavage) using a normal saline formulation containing 10 mg/kg of the compounds identified in the table below. Plasma, brain, and CSF samples were analyzed at various time points over a 24 hour period. The table below summarizes the results of the oral pharmacokinetics, where the first three values (Tmax, Cmax and AUClast) are plasma values.

The nature of data set [4]: Microsomal stability (Rat). Format: in vitro ADME. Conditions: rat microsomes, after 60 minutes. On the procedure:
Microsomal stability of disclosed compounds was investigated. The following table indicates the percent of compound remaining after 60 minutes.

T2 sequence (O15399 28-1336, species assumed, other chains not shown): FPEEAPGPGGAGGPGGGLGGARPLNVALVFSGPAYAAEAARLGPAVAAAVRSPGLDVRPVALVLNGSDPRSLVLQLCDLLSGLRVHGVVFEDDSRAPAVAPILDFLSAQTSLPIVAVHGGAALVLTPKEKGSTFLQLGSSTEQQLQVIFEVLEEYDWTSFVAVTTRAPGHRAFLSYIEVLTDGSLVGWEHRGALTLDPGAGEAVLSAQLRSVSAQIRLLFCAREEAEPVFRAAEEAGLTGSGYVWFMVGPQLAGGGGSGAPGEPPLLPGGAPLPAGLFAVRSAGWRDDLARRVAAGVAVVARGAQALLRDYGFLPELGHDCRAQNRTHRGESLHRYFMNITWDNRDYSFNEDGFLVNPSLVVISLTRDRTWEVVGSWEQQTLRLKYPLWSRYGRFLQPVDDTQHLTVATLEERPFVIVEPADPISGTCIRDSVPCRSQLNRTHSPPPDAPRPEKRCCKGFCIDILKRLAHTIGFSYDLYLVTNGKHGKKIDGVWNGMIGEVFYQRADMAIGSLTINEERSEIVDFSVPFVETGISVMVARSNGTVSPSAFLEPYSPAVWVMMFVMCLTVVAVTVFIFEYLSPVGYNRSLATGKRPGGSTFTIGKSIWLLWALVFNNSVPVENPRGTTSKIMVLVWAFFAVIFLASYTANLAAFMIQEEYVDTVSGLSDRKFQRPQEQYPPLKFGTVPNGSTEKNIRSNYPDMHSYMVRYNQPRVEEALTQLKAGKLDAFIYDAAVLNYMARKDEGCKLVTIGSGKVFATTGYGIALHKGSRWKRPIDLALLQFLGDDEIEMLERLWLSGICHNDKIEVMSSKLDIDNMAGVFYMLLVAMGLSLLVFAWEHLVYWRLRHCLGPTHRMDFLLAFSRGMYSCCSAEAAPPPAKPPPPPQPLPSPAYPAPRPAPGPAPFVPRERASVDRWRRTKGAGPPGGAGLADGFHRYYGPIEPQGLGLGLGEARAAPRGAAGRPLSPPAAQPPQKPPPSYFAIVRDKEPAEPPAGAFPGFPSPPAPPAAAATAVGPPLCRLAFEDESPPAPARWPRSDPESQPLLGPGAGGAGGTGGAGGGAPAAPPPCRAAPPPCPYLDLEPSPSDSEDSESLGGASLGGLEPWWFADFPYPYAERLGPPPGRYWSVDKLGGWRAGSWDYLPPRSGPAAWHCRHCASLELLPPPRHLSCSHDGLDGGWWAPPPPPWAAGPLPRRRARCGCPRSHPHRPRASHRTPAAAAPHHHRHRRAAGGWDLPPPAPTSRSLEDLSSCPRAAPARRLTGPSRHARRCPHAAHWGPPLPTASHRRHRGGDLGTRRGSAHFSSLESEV
T1 sequence (O15399 28-1336, species assumed, other chains not shown): as above

Regarding `CC(C)C(=O)N1CCC2(CCCNC2=O)CC1` [Compound AD, 9-isobutyryl-2,9-diazaspiro[5.5]undecan-1-one], the “NMDAR2D A: % maximal [3H]MK-801 binding relative to 1 mM glycine” value on NMDAR2D [1] was “+ (<100%=+)”. On NMDAR2D [2], the half-maximal effective concentration (EC50) is less than 1 nM. Moreover, in data set [3] (Sprague Dawley, plasma), the bioavailability was 70%, the exposure AUC(0-t) is 18400 ng·h/mL, the maximum concentration (Cmax) amounted to 8540 ng/mL and the time to peak (Tmax) was 19.8 min. Further, in data set [3] (CSF), the “CSF Cmax” value stood at 4697 ng/mL. Also, the “Brain Cmax” value in data set [3] (brain) is recorded as 4833 ng/mL. For the same molecule, in data set [4], the “Microsomal (Rat): percent of compound remaining” value is reported as 100%.
